Experimental data taken from PMC8550792, “Evolution of kinase polypharmacology across HSP90 drug discovery” (Cell Chemical Biology, 2021).
Values joined by “and” are separate entries in the source; they are usually repeats but may differ in a detail not shown here. Equal entries are not always repeated. Where two headings read alike, the source gives them in different places.

How the values were obtained:
382 unique human kinases [1] = target: T1, 382 unique human kinases (Homo sapiens, UniProt P24941); test: biochemical; type: biochemical; conditions: for remaining activity at 10 µM: read-out: % Enzyme Activity (relative to DMSO controls)
T1 construct: purchased Reaction Biology (HotSpot contract assay)

382 unique human kinases [2] = target: T2, 382 unique human kinases (Homo sapiens, UniProt Q00534); test: biochemical; type: biochemical; conditions: kinase CDK6/cyclin D1, compound 10 uM; for remaining activity at 10 µM: read-out: % Enzyme Activity (relative to DMSO controls)
T2 construct: purchased Reaction Biology (HotSpot contract assay)

382 unique human kinases [3] = target: T3, 382 unique human kinases (Homo sapiens, UniProt P11802); test: biochemical; type: biochemical; conditions: for remaining activity at 10 µM: read-out: % Enzyme Activity (relative to DMSO controls)
T3 construct: purchased Reaction Biology (HotSpot contract assay)

382 unique human kinases [4] = target: T4, 382 unique human kinases (Homo sapiens, UniProt P50750); test: biochemical; type: biochemical; conditions: for remaining activity at 10 µM: read-out: % Enzyme Activity (relative to DMSO controls)
T4 construct: purchased Reaction Biology (HotSpot contract assay)

LYN B = target: T5, LYN B (Homo sapiens, UniProt P07948); test: HotSpot in vitro kinase radiometric assay; type: biochemical; conditions: 10 μM; Fig 6C median ± standard deviation (n = 2)
T5 construct: purchased Reaction Biology (HotSpot contract assay)
Procedure, shortened: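 Inhibition of catalytic activity is quantified by direct detection of the true phosphorylated product. Each compound is incubated with enzyme, substrate, cofactors and radioisotope-labelled ATP, and the mixture is applied to product-binding filters.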

HSP90AB1 = test system: HSP90AB1; design: method as in ChEMBL23 (accessed: 23/08/2018); conditions: average of reported values; ref ChEMBL23 (accessed: 23/08/2018); cited from earlier work
382 unique human kinases [5] = test: biochemical; type: biochemical
ABL2/ARG = target: T6, ABL2/ARG (Homo sapiens, UniProt P42684); test: HotSpot in vitro kinase radiometric assay; type: biochemical
T6 construct: purchased Reaction Biology (HotSpot contract assay)

DDR1 = DDR1 (Homo sapiens, UniProt Q08345); test: HotSpot in vitro kinase radiometric assay; type: biochemical; design: purchased Reaction Biology (HotSpot contract assay)
ABL1 = ABL1 (Homo sapiens, UniProt P00519); test: HotSpot in vitro kinase radiometric assay; type: biochemical; design: purchased Reaction Biology (HotSpot contract assay)
[6] = kinase CDK2/cyclin O, compound 10 uM
[7] = kinase CDK9/cyclin K, compound 10 uM

Sequence of ABL1 (P00519 whole entry): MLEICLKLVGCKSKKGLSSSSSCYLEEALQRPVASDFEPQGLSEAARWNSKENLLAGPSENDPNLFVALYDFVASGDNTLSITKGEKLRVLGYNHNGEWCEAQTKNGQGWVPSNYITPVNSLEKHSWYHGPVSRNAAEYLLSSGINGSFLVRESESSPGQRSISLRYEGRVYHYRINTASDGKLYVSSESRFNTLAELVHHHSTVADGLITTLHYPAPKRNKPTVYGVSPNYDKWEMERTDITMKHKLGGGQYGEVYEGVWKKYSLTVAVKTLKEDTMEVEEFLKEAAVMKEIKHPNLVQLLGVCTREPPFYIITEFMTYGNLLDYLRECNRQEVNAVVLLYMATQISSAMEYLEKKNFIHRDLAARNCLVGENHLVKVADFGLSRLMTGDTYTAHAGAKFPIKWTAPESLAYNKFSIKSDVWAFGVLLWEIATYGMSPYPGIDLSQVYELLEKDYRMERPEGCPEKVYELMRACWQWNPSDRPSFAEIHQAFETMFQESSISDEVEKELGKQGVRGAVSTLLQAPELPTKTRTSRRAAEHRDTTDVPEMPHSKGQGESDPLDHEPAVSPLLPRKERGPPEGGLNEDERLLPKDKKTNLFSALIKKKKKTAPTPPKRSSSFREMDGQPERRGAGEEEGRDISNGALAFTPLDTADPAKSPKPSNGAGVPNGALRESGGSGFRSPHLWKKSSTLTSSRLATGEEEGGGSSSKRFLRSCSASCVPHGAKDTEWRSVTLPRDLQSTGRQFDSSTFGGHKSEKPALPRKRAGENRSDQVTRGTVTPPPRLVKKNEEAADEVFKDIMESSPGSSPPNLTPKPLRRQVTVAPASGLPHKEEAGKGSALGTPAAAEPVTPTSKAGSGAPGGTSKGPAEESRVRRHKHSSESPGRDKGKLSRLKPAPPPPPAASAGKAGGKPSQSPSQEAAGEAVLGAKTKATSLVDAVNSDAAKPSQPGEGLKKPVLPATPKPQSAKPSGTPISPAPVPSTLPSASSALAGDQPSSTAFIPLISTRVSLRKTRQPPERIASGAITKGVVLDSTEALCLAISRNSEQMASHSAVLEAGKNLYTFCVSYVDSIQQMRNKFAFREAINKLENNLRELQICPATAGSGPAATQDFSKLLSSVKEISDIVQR
Sequence of DDR1 (Q08345 19-913): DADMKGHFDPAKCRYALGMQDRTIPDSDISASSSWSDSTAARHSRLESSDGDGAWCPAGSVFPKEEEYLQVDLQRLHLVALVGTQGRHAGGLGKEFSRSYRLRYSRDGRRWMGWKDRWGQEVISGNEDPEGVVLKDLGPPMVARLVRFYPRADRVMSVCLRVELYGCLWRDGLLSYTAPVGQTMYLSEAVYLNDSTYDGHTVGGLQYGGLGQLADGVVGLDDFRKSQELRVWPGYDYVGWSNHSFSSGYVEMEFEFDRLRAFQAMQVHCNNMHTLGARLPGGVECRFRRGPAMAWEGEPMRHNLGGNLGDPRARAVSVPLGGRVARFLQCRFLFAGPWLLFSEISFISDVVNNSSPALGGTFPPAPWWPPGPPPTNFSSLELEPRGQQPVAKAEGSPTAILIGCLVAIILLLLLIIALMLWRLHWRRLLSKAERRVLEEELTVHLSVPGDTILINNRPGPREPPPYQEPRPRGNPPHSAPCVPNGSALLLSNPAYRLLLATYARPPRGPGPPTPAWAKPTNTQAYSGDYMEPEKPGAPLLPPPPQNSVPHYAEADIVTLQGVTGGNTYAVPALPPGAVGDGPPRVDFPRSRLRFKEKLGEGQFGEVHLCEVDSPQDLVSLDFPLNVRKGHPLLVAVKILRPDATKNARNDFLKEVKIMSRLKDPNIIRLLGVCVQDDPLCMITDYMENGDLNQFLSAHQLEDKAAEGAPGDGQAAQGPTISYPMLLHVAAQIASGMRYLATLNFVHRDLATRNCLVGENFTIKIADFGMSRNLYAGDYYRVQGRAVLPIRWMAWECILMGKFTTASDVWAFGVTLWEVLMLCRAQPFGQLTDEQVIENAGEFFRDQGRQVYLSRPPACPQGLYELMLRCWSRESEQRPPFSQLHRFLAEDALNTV
T6 sequence (P42684 whole entry): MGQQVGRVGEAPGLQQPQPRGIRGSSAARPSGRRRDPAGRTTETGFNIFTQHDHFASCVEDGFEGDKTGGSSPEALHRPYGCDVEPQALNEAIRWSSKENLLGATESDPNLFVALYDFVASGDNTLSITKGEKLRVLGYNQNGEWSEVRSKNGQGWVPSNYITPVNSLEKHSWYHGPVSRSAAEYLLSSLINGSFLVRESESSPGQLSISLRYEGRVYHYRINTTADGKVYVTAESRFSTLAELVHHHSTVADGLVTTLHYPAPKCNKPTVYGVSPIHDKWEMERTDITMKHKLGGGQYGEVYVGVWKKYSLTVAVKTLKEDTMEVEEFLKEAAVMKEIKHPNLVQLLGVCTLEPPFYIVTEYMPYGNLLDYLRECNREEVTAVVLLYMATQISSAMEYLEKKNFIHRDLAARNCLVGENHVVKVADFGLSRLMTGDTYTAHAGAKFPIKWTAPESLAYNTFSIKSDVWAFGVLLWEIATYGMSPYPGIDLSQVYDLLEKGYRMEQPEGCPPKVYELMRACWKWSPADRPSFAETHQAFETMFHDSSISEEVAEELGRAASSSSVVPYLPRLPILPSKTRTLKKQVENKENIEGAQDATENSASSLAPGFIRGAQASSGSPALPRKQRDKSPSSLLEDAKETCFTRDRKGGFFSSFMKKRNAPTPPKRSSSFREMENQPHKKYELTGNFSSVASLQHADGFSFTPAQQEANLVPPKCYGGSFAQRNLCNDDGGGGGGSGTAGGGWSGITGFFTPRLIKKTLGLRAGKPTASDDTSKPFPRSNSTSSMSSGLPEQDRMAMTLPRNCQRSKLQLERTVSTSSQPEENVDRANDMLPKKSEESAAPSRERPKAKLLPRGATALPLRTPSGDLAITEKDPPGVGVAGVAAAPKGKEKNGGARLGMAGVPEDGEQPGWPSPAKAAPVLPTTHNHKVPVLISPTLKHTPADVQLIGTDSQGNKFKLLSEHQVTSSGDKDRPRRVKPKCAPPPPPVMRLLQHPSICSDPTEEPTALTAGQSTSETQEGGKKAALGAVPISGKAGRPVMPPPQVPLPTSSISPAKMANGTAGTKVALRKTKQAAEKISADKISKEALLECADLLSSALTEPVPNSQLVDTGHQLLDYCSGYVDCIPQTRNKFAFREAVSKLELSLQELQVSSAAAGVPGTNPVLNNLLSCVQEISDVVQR
T4 sequence (P50750 whole entry): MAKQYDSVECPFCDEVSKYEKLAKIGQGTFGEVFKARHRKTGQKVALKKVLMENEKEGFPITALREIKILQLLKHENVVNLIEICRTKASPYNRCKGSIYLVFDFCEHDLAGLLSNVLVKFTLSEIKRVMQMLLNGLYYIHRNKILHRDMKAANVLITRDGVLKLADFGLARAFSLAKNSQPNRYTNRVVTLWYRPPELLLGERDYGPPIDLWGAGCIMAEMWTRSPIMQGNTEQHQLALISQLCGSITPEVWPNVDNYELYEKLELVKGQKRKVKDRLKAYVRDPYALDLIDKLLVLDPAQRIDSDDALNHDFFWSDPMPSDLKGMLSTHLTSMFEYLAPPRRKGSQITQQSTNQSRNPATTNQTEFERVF
T2 sequence (Q00534 whole entry): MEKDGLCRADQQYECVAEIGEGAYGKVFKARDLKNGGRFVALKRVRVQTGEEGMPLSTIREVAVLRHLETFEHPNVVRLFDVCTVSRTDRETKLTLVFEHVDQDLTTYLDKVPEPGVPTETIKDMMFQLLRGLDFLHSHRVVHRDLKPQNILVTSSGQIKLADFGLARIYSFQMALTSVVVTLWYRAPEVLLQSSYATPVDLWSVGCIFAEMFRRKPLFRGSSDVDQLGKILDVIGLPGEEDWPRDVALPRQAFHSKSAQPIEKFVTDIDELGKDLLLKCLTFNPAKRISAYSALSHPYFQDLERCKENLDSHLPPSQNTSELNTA
T3 sequence (P11802 whole entry): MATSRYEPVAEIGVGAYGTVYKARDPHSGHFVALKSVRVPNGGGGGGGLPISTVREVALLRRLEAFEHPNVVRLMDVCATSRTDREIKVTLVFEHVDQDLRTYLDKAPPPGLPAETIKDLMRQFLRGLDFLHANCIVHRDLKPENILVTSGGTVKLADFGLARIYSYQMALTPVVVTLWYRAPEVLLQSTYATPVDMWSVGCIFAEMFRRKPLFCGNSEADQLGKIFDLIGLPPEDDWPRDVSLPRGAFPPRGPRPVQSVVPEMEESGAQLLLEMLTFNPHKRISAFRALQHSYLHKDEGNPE
T5 sequence (P07948 1-491 isoform P07948-2): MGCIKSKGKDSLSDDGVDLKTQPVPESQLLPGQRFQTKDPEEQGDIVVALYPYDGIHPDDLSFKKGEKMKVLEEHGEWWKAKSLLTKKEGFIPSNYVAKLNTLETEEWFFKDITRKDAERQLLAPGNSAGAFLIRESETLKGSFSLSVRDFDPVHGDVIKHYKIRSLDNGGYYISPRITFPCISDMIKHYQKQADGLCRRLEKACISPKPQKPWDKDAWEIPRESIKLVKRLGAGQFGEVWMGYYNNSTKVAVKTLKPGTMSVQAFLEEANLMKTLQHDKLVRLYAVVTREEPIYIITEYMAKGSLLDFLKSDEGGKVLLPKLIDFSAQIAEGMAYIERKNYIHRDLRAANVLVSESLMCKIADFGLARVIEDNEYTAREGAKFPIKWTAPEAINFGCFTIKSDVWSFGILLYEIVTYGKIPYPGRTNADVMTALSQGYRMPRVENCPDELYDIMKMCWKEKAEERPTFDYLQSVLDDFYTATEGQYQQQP

CC(C)c1cc(-c2n[nH]c(=O)n2-c2ccc3c(ccn3C)c2)c(O)cc1O [Ganetespib (STA9090)]
remaining activity at 10 µM (382 unique human kinases [1]; CDK2/cyclin A, 10 uM): 74.3% | remaining activity at 10 µM (382 unique human kinases [1]; [6]): 92.8% | remaining activity at 10 µM (382 unique human kinases [2]): 85% | remaining activity at 10 µM (382 unique human kinases [3]; CDK4/cyclin D1, 10 uM): 65.6% | remaining activity at 10 µM (382 unique human kinases [4]; CDK9/cyclin T2, 10 uM): 69.9% | remaining activity at 10 µM (382 unique human kinases [4]; [7]): 87%

CC(C)c1cc(-c2n[nH]c(=O)n2-c2ccc3c(ccn3C)c2)c(O)cc1O [Ganetespib]
% inhibition at 10 uM: LYN B (LYN B): not inhibited | pActivity, HSP90AB1 (HSP90AB1): 8.3 | remaining activity at 10 µM (382 unique human kinases [1]; CDK2/Cyclin A1, 10 uM): 108% | remaining activity at 10 µM (382 unique human kinases [1]; CDK2/cyclin E, 10 uM): 93.7% | number of kinases with inhibition of catalytic activity below 1 μM (382 unique human kinases [5]): 4 | number of native kinases inhibited by more than 85% at 10 μM (382 unique human kinases [5]; 10 μM): 20 | In vitro screening: kinases hit / kinases screened (382 unique human kinases [5]; Figure 3): 21/382 | number of off-target kinases experimentally identified, In vitro binding (KinomeSCAN) (382 unique human kinases [5]; cutoff of >85% inhibition at 10 μM, luminespib and ganetespib large kinome panel, others 16-kinase panel): 21 | remaining activity at 10 µM (382 unique human kinases [3]; CDK4/cyclin D3, [ATP] 5 µM, compound 10 uM): 53.8% | remaining activity at 10 µM (382 unique human kinases [4]; CDK9/cyclin T1, 10 uM): 100% | HILLSLOPE (ABL2/ARG; ABL2, single replicate curves): -0.77 and -0.90 and -0.92 | IC50 (ABL2/ARG; ABL2, single replicate curves, read-out: IC50): 174 nM and 230 nM and 240 nM | IC50 (ABL2/ARG; radiometric 10-point concentration-response, n = 3, read-out: in vitro biochemical IC50, ABL2): 215 nM | inhibition at 1 µM (ABL2/ARG; read-out: % inhibition of ABL2 at 1 μM, 1 μM, secondary screening): > 85% | HILLSLOPE (DDR1; DDR1, single replicate curves): -0.94 and -1.03 and -0.91 | IC50 (DDR1; DDR1, single replicate curves, read-out: IC50): 361 nM and 363 nM and 289 nM | IC50 (DDR1; radiometric 10-point concentration-response, n = 3, read-out: in vitro biochemical IC50, DDR1): 338 nM | inhibition at 1 µM (DDR1; read-out: % inhibition of DDR1 at 1 μM, 1 μM, secondary screening): > 85% | HILLSLOPE (ABL1; ABL1, single replicate curves): -0.99 and -0.93 and -0.96 | IC50 (ABL1; ABL1, single replicate curves, read-out: IC50): 625 nM and 519 nM and 539 nM | IC50 (ABL1; radiometric 10-point concentration-response, n = 3, read-out: in vitro biochemical IC50, ABL1): 561 nM | inhibition at 1 µM (ABL1; read-out: % inhibition of ABL1 at 1 μM, 1 μM, secondary screening): > 80%

CCNC(=O)c1noc(-c2cc(C(C)C)c(O)cc2O)c1-c1ccc(CN2CCOCC2)cc1 [Luminespib (AUY-922)]
% Enzyme Activity (relative to DMSO controls) (382 unique human kinases [1]; CDK2/cyclin A, 10 uM): 97.81% | remaining activity at 10 µM (382 unique human kinases [1]; CDK2/cyclin A, 10 uM): 97.9% | % Enzyme Activity (relative to DMSO controls) (382 unique human kinases [1]; [6]): 100.70% | remaining activity at 10 µM (382 unique human kinases [1]; [6]): 101% | % Enzyme Activity (relative to DMSO controls) (382 unique human kinases [5]; ALK (F1174L)-EML4, 10 uM): 85.87% and 84.56% | % Enzyme Activity (relative to DMSO controls) (382 unique human kinases [5]; ALK (F1174L)-NPM1, 10 uM): 102.87% and 100.42% | % Enzyme Activity (relative to DMSO controls) (382 unique human kinases [5]; ALK-NPM1, 10 uM): 100.77% and 99.39% | % Enzyme Activity (relative to DMSO controls) (382 unique human kinases [5]; ALK-TFG, 10 uM): 100.17% and 98.13% | % Enzyme Activity (relative to DMSO controls) (382 unique human kinases [5]; BRAF (R506_K507insVLR), compound at 10 uM, duplicate values): 111.39% and 111.37% | % Enzyme Activity (relative to DMSO controls) (382 unique human kinases [5]; BRAF (d485-489/P490Y), compound at 10 uM, duplicate values): 105.00% and 104.80% | % Enzyme Activity (relative to DMSO controls) (382 unique human kinases [5]; BRAF-KIAA1549 (Kex15Bex9), compound at 10 uM, duplicate values): 106.11% and 102.92% | % Enzyme Activity (relative to DMSO controls) (382 unique human kinases [5]; BRAF-KIAA1549 (Kex16Bex9), compound at 10 uM, duplicate values): 104.70% and 104.59% | % Enzyme Activity (relative to DMSO controls) (382 unique human kinases [5]; BRAF-SRGAP3 (Sex12Bex9), compound at 10 uM, duplicate values): 107.79% and 106.99% | % Enzyme Activity (relative to DMSO controls) (382 unique human kinases [5]; PDGFRb-TPM3, 10 uM): 63.63% and 61.80% | % Enzyme Activity (relative to DMSO controls) (382 unique human kinases [5]; PKG1b, 10 uM): 60.28% and 59.59% | % Enzyme Activity (relative to DMSO controls) (382 unique human kinases [5]; RET-CCDC6 (PTC1), 10 uM): 105.26% and 102.15% | % Enzyme Activity (relative to DMSO controls) (382 unique human kinases [5]; RET-NCOA4 (PTC3), 10 uM): 95.03% and 94.64% | % Enzyme Activity (relative to DMSO controls) (382 unique human kinases [5]; RET-PRKAR1A (PTC2), 10 uM): 95.60% and 94.13% | % Enzyme Activity (relative to DMSO controls) (382 unique human kinases [5]; ROS1-TPM3, 10 uM): 97.28% and 96.49% | % Enzyme Activity (relative to DMSO controls) (382 unique human kinases [5]; kinase EGFR (A763_Y764insFHEA), compound 10 uM): 98.66% and 97.53% | % Enzyme Activity (relative to DMSO controls) (382 unique human kinases [5]; kinase EGFR (D770GY), compound 10 uM): 129.18% and 126.54% | % Enzyme Activity (relative to DMSO controls) (382 unique human kinases [5]; kinase EGFR (D770_N771insNPG), compound 10 uM): 106.12% and 103.12% | % Enzyme Activity (relative to DMSO controls) (382 unique human kinases [5]; kinase EGFR (d746), compound 10 uM): 98.75% and 97.31% | % Enzyme Activity (relative to DMSO controls) (382 unique human kinases [5]; kinase EGFR (d746-750/T790M/C797S), compound 10 uM): 100.68% and 100.47% | % Enzyme Activity (relative to DMSO controls) (382 unique human kinases [5]; kinase EGFR (d747-752/P753S), compound 10 uM): 98.74% and 98.40% | % Enzyme Activity (relative to DMSO controls) (382 unique human kinases [5]; kinase ERBB2 (P780_Y781insGSP), compound 10 uM): 96.69% and 95.30% | % Enzyme Activity (relative to DMSO controls) (382 unique human kinases [5]; kinase KSR1 (L639F), compound 10 uM): 103.34% and 102.74% | % Enzyme Activity (relative to DMSO controls) (382 unique human kinases [5]; kinase PDGFRa-FIP1L1, compound 10 uM): 98.64% and 97.51% | % Enzyme Activity (relative to DMSO controls) (382 unique human kinases [5]; kinase RET-BCR, compound 10 uM): 97.53% and 96.48% | % Enzyme Activity (relative to DMSO controls) (382 unique human kinases [2]): 105.58% | remaining activity at 10 µM (382 unique human kinases [2]): 106% | % Enzyme Activity (relative to DMSO controls) (382 unique human kinases [3]; CDK4/cyclin D1, 10 uM): 100.66% | remaining activity at 10 µM (382 unique human kinases [3]; CDK4/cyclin D1, 10 uM): 103% | % Enzyme Activity (relative to DMSO controls) (382 unique human kinases [4]; CDK9/cyclin T2, 10 uM): 89.68% | remaining activity at 10 µM (382 unique human kinases [4]; CDK9/cyclin T2, 10 uM): 89.7% | % Enzyme Activity (relative to DMSO controls) (382 unique human kinases [4]; [7]): 104.02% | remaining activity at 10 µM (382 unique human kinases [4]; [7]): 104%
